# Test results published in ChEMBL document CHEMBL1148772, “Inhibition of Mycobacterium tuberculosis, Mycobacterium bovis, and Mycobacterium avium by novel dideoxy nucleosides” (J Med Chem, 2007).
# How the values were obtained:
# Mycobacterium avium [1] = experiment: Antimycobacterial activity against Mycobacterium avium ATCC 25291 at 100 uM by microplate alamar blue assay; assay type: functional
# [2] = test system: Mycobacterium tuberculosis; experiment: Antimycobacterial activity against Mycobacterium tuberculosis H37Ra at 100 uM by microplate alamar blue assay; assay type: functional
# Mycobacterium avium [3] = experiment: Antimycobacterial activity against Mycobacterium avium ATCC 25291 at 50 uM by microplate alamar blue assay; assay type: functional
# Mycobacterium avium [4] = experiment: Antimycobacterial activity against Mycobacterium avium ATCC 25291 by microplate alamar blue assay; assay type: functional
# Mycobacterium avium [5] = experiment: Antimycobacterial activity against Mycobacterium avium ATCC 25291 at 2 uM by microplate alamar blue assay; assay type: functional
# [6] = test system: Mycobacterium tuberculosis; experiment: Antimycobacterial activity against Mycobacterium tuberculosis H37Ra by microplate alamar blue assay; assay type: functional
# [7] = Cytotoxicity against Vero cells by MTT assay; assay type: cell-based; settings: African green monkey
# [8] = Cytotoxicity against human foreskin fibroblast cells by MTT assay; assay type: cell-based
# [9] = test system: Mycobacterium tuberculosis; experiment: Antimycobacterial activity against Mycobacterium tuberculosis H37Ra at 10 uM by microplate alamar blue assay; assay type: functional
# [10] = test system: Mycobacterium tuberculosis; experiment: Antimycobacterial activity against Mycobacterium tuberculosis H37Ra at 50 uM by microplate alamar blue assay; assay type: functional
# Mycobacterium avium [11] = experiment: Antimycobacterial activity against Mycobacterium avium ATCC 25291 at 10 uM by microplate alamar blue assay; assay type: functional
# [12] = test system: Mycobacterium tuberculosis; experiment: Antimycobacterial activity against Mycobacterium tuberculosis H37Ra at 1 uM by microplate alamar blue assay; assay type: functional
# Bacillus subtilis = experiment: Antibacterial activity against Bacillus subtilis ATCC 6633; assay type: functional
# Streptococcus pneumoniae = experiment: Antibacterial activity against Streptococcus pneumoniae ATCC 49619; assay type: functional
# Streptococcus pyogenes = experiment: Antibacterial activity against Streptococcus pyogenes ATCC 19615; assay type: functional
compound,measurement,setting,value
COc1nc(N)nc2c1ncn2[C@H]1CC[C@@H](CO)O1 [METACAVIR],inhibition at 100 µM,Mycobacterium avium [1],20%
same,inhibition at 100 µM,[2],0%
same,inhibition at 50 µM,Mycobacterium avium [3],20%
CO[C@H]1/C=C/O[C@@]2(C)Oc3c(C)c(O)c4c(O)c(c(/C=N/N5CCN(C)CC5)c(O)c4c3C2=O)NC(=O)/C(C)=C\C=C\[C@H](C)[C@H](O)[C@@H](C)[C@@H](O)[C@@H](C)[C@H](OC(C)=O)[C@@H]1C [RIFAMPIN],MIC90,Mycobacterium avium [4],2 µg/mL
same,inhibition at 2 µM,Mycobacterium avium [5],90%
same,MIC90,[6],0.5 µg/mL
NC(=O)c1cn([C@H]2CC[C@@H](CO)O2)c2ncnc(N)c12,inhibition at 100 µM,Mycobacterium avium [1],0%
same,inhibition at 100 µM,[2],0%
CCCCCCCCC#Cc1cn([C@H]2C[C@H](F)[C@@H](CO)O2)c(=O)[nH]c1=O,inhibition at 100 µM,Mycobacterium avium [1],50%
same,CC50,[7],> 100 µg/mL
same,CC50,[8],> 100 µg/mL
same,inhibition at 100 µM,[2],100%
same,inhibition at 10 µM,[9],25%
same,inhibition at 50 µM,[10],100%
same,MIC90,[6],10 µg/mL
Nc1nc(=O)n([C@H]2CC[C@@H](CO)O2)cc1Br,inhibition at 100 µM,Mycobacterium avium [1],0%
same,inhibition at 10 µM,[9],50%
CCCCCCCCCCCC#Cc1cn([C@H]2C[C@H](F)[C@@H](CO)O2)c(=O)[nH]c1=O,inhibition at 100 µM,Mycobacterium avium [1],25%
same,CC50,[7],> 100 µg/mL
same,CC50,[8],> 100 µg/mL
same,inhibition at 100 µM,[2],100%
same,inhibition at 10 µM,[9],60%
same,inhibition at 50 µM,[10],100%
same,MIC90,[6],10 µg/mL
CC(=O)OC[C@@H]1CC[C@H](n2ccc(=O)[nH]c2=O)O1,inhibition at 100 µM,Mycobacterium avium [1],0%
same,inhibition at 100 µM,[2],0%
CC[C@H]1OC(=O)[C@H](C)[C@@H](O[C@H]2C[C@@](C)(OC)[C@@H](O)[C@H](C)O2)[C@H](C)[C@@H](O[C@@H]2O[C@H](C)C[C@H](N(C)C)[C@H]2O)[C@](C)(OC)C[C@@H](C)C(=O)[C@H](C)[C@@H](O)[C@]1(C)O [CLARITHROMYCIN],MIC90,Mycobacterium avium [4],2 µg/mL
same,inhibition at 2 µM,Mycobacterium avium [5],95%
Nc1nc(F)c2ccn([C@H]3CC[C@@H](CO)O3)c2n1,inhibition at 100 µM,Mycobacterium avium [1],100%
same,inhibition at 100 µM,[2],50%
same,inhibition at 10 µM,[9],25%
same,MIC90,Mycobacterium avium [4],10 µg/mL
same,inhibition at 50 µM,Mycobacterium avium [3],100%
same,inhibition at 10 µM,Mycobacterium avium [11],35%
same,inhibition at 50 µM,[10],40%
CCSc1nc(N)nc2c1ncn2[C@H]1CC[C@@H](CO)O1,inhibition at 100 µM,Mycobacterium avium [1],25%
same,inhibition at 100 µM,[2],100%
same,inhibition at 10 µM,[9],35%
same,inhibition at 50 µM,Mycobacterium avium [3],25%
same,inhibition at 50 µM,[10],100%
same,MIC90,[6],10 µg/mL
Nc1ccn([C@@H]2CS[C@H](CO)O2)c(=O)n1 [LAMIVUDINE],inhibition at 100 µM,Mycobacterium avium [1],0%
same,inhibition at 100 µM,[2],0%
CCCCCCCCCCCCC#Cc1cn(C2CC(F)C(CO)O2)c(=O)[nH]c1=O (stereo not drawn),inhibition at 100 µM,Mycobacterium avium [1],90%
same,CC50,[7],> 100 µg/mL
same,CC50,[8],> 100 µg/mL
same,inhibition at 100 µM,[2],100%
same,inhibition at 10 µM,[9],100%
same,MIC90,Mycobacterium avium [4],100 µg/mL
same,inhibition at 1 µM,[12],80%
same,inhibition at 50 µM,[10],100%
same,MIC90,[6],1 µg/mL
CCCCCCCCCC#Cc1cn([C@H]2CC[C@@H](CO)O2)c(=O)[nH]c1=O,inhibition at 100 µM,Mycobacterium avium [1],100%
same,CC50,[7],> 100 µg/mL
same,CC50,[8],> 100 µg/mL
same,inhibition at 100 µM,[2],100%
same,inhibition at 10 µM,[9],100%
same,MIC90,Mycobacterium avium [4],10 µg/mL
same,inhibition at 1 µM,[12],80%
same,inhibition at 50 µM,Mycobacterium avium [3],100%
same,inhibition at 10 µM,Mycobacterium avium [11],50%
same,inhibition at 50 µM,[10],100%
same,MIC90,[6],1 µg/mL
same,MIC,Bacillus subtilis,100 µg/mL
Nc1ncnc2c1ncn2[C@H]1CC[C@@H](CO)O1,inhibition at 100 µM,Mycobacterium avium [1],0%
same,inhibition at 100 µM,[2],0%
CCCCCCCCCCCCC#Cc1cn([C@H]2CC[C@@H](CO)O2)c(=O)[nH]c1=O,inhibition at 100 µM,Mycobacterium avium [1],100%
same,CC50,[7],> 100 µg/mL
same,CC50,[8],> 100 µg/mL
same,inhibition at 100 µM,[2],100%
same,inhibition at 10 µM,[9],50%
same,MIC90,Mycobacterium avium [4],50 µg/mL
same,inhibition at 1 µM,[12],25%
same,inhibition at 50 µM,Mycobacterium avium [3],50%
same,inhibition at 50 µM,[10],100%
same,MIC90,[6],10 µg/mL
CCCCCCCCCCCC#Cc1cn([C@H]2CC[C@@H](CO)O2)c(=O)[nH]c1=O,inhibition at 100 µM,Mycobacterium avium [1],100%
same,CC50,[7],> 100 µg/mL
same,CC50,[8],> 100 µg/mL
same,inhibition at 100 µM,[2],100%
same,inhibition at 10 µM,[9],50%
same,MIC90,Mycobacterium avium [4],10 µg/mL
same,inhibition at 1 µM,[12],50%
same,inhibition at 50 µM,Mycobacterium avium [3],100%
same,inhibition at 10 µM,Mycobacterium avium [11],80%
same,inhibition at 50 µM,[10],100%
same,MIC90,[6],10 µg/mL
Nc1nc(N)c2ncn([C@H]3CC[C@@H](CO)O3)c2n1,inhibition at 100 µM,Mycobacterium avium [1],0%
same,inhibition at 100 µM,[2],25%
Nc1ccn([C@H]2CC[C@@H](CO)O2)c(=O)n1 [ZALCITABINE],inhibition at 100 µM,Mycobacterium avium [1],0%
same,inhibition at 100 µM,[2],0%
O=c1[nH]c(=O)n([C@H]2CC[C@@H](CO)O2)cc1C#Cc1ccccc1,inhibition at 100 µM,Mycobacterium avium [1],25%
same,inhibition at 100 µM,[2],25%
same,inhibition at 50 µM,Mycobacterium avium [3],25%
same,inhibition at 10 µM,Mycobacterium avium [11],25%
same,inhibition at 50 µM,[10],25%
CCCc1ccc(C#Cc2cn([C@H]3C[C@H](F)[C@@H](CO)O3)c(=O)[nH]c2=O)cc1,inhibition at 100 µM,Mycobacterium avium [1],25%
same,inhibition at 100 µM,[2],100%
same,inhibition at 10 µM,[9],50%
same,inhibition at 50 µM,[10],100%
same,MIC90,[6],50 µg/mL
Nc1nc(O)c2ncn([C@H]3CC[C@@H](CO)O3)c2n1,inhibition at 100 µM,Mycobacterium avium [1],0%
same,inhibition at 100 µM,[2],0%
CCCCCCCCC#Cc1cn([C@H]2CC[C@@H](CO)O2)c(=O)[nH]c1=O,inhibition at 100 µM,Mycobacterium avium [1],90%
same,CC50,[7],> 100 µg/mL
same,CC50,[8],> 100 µg/mL
same,inhibition at 100 µM,[2],100%
same,inhibition at 10 µM,[9],100%
same,MIC90,Mycobacterium avium [4],100 µg/mL
same,inhibition at 1 µM,[12],50%
same,MIC,Streptococcus pneumoniae,100 µg/mL
same,inhibition at 50 µM,Mycobacterium avium [3],25%
same,inhibition at 10 µM,Mycobacterium avium [11],25%
same,inhibition at 50 µM,[10],100%
same,MIC90,[6],1 µg/mL
same,MIC,Bacillus subtilis,100 µg/mL
same,MIC,Streptococcus pyogenes,100 µg/mL
CCCCCC#Cc1cn([C@H]2C[C@H](F)[C@@H](CO)O2)c(=O)[nH]c1=O,inhibition at 100 µM,Mycobacterium avium [1],0%
same,inhibition at 100 µM,[2],50%
O=c1[nH]c(=O)n([C@H]2CC[C@@H](CO)O2)cc1Br,inhibition at 100 µM,Mycobacterium avium [1],0%
same,inhibition at 100 µM,[2],0%
N#Cc1cn(C2CCC(CO)O2)c2ncnc(N)c12 (stereo not drawn),inhibition at 100 µM,Mycobacterium avium [1],0%
same,inhibition at 100 µM,[2],50%
same,inhibition at 50 µM,[10],40%
Cc1cn([C@H]2CC[C@@H](CO)O2)c(=O)nc1N,inhibition at 100 µM,Mycobacterium avium [1],0%
same,inhibition at 100 µM,[2],50%
same,inhibition at 10 µM,[9],50%
same,inhibition at 50 µM,[10],50%
CC(=O)OC[C@@H]1CC[C@H](n2cc(Cl)c(=S)[nH]c2=O)O1,inhibition at 100 µM,Mycobacterium avium [1],0%
same,inhibition at 100 µM,[2],100%
same,inhibition at 50 µM,[10],60%
same,MIC90,[6],50 µg/mL
CCCC#Cc1cn([C@H]2CC[C@@H](CO)O2)c(=O)[nH]c1=O,inhibition at 100 µM,Mycobacterium avium [1],0%
same,inhibition at 100 µM,[2],50%
Nc1nc(=O)n([C@H]2CC[C@@H](CO)O2)cc1I,inhibition at 100 µM,Mycobacterium avium [1],0%
same,inhibition at 100 µM,[2],0%
CC(=O)OC[C@@H]1CC[C@H](n2cc(Cl)c(=O)[nH]c2=O)O1,inhibition at 100 µM,Mycobacterium avium [1],0%
same,inhibition at 100 µM,[2],0%
O=c1[nH]c(=S)c(Cl)cn1[C@H]1CC[C@@H](CO)O1,inhibition at 100 µM,Mycobacterium avium [1],0%
same,inhibition at 100 µM,[2],100%
same,inhibition at 50 µM,[10],50%
same,MIC90,[6],50 µg/mL
CCCCCCCCCCC#Cc1cn([C@H]2C[C@H](F)[C@@H](CO)O2)c(=O)[nH]c1=O,inhibition at 100 µM,Mycobacterium avium [1],90%
same,CC50,[7],> 100 µg/mL
same,CC50,[8],> 100 µg/mL
same,inhibition at 100 µM,[2],100%
same,inhibition at 10 µM,[9],50%
same,MIC90,Mycobacterium avium [4],100 µg/mL
same,inhibition at 50 µM,Mycobacterium avium [3],40%
same,inhibition at 50 µM,[10],100%
same,MIC90,[6],10 µg/mL
O=c1[nH]c(=O)n([C@H]2CC[C@@H](CO)O2)cc1Cl,inhibition at 100 µM,Mycobacterium avium [1],0%
same,inhibition at 100 µM,[2],0%
